Here are results for five compounds from patent publication US10617656B2, “Methods of increasing the cytotoxicity of chemotherapeutic agents with multisubstrate inhibitors of histone, protein-Lys, polyamine acetylation, and polyamine metabolism” (Vanderbilt University, priority 2010, dated 2020).

SMILES strings stand for the structures.

In data set [1] the test system is H358 lung cancer cells. It is filed as cell-based. As to the method:
(§1) Control cells were left untreated. […] Control cells were left untreated.
Cells were given fresh inhibitor on the first, second, and third days of treatment and viability was measured on the 4th day (i.e. 3 days post start of treatment). […]
(A) Structure of Spd-3a. (B) Western analysis of histone H3K9-acetylation and total histone H3, measured in control, untreated H358 lung cancer cells “C” or in H358 cells incubated 12 hours in the presence of 50 μM Spd-2a or Spd-3a. Each lane represents 60 μg cellular protein. (C) [3H]-thymidine incorporation (counts per minute) into DNA of H358 cells during a 6 hour pulse beginning at 42 hours post-start of treatment. Treatments were as follows (bars 1-6 left to right): (1) control: no treatment; (2) CPT alone: 5 nM 18 hours; (3) 3a alone: 50 μM; (4-6) 3a+CPT: CPT (5 nm, 18 hours)+3a at indicated dose. After 18 hours, CPT was removed and medium was replaced with fresh medium containing Spd-3a at the indicated dose. Each bar represents the average of triplicates. (D) 3-day 96-well viability assay of H358 cells grown in the presence of increasing amounts of Spd-2a or Spd-3a, with or without CPT (5 nM 18 hours). […] Each data point represents the average of three wells.
(§2) Date of exp: Jul. […] Date of exp: Sep.
(§3) Cells were plated in 96-well plates at 2000 cells per well and treated with the indicated doses of spd-3a. Cell viability was measured by the MTS assay 3 days later.
DLD-1 cells or H358 cells were plated in 96-well plates at 2000 cells per well and treated with the indicated doses of (A) spm-3 or (B) spm-2. (C) Cell viability was measured by the MTS assay 3 days later. Similar experiment using GT41 fibroblasts with spm2 or spm 3. Each assay point represents an average of duplicates. […]

Data set [2] has as its system endogenous HATs associated with solubilized chromatin. The note with it: Bandyopadhyay et al, 2009; cited from earlier work.
The test system of data set [3] is MDA MB-435 breast cancer cells. The experiment in a line: 72 hr viability assay, MDA MB-435. Particulars: 72 hr assay; DFMO 100 μM, 5FU 2 μM, doxorubicin 100 nM. In kind it is cell-based.
A further data set deals with MCF7 breast cancer cells. The note with it: for effect as single agent on viability: 72 hr assay, DFMO 100 μM, 5FU 2 μM, doxorubicin 100 nM. As to the method: Viability was measured 3 days after the start of treatment and is expressed as a percentage of control (untreated) cell viability.
Each point is average of triplicates. […]
The present inventors carried out 96-well viability assays as we have previously described (Saadatmandi et al, Cancer Gene Therapy (2002) 9:830-9), in which MCF7 breast cancer cells were plated at 3000 cells per well. After overnight attachment, triplicate wells were treated with increasing doses of inhibitor 1a. Control wells were left untreated. After 3 days, cell viability was measured by the MTS assay, which measures the bioconversion of an uncolored substrate to a colored formazan derivative, and is proportional to cell number.

A further data set deals with γ-H2A.X in H358 cells. Description: γ-H2A.X Western / double strand break repair assay. The note with it: 18 hours post-start; low doses as in FIG. 3. It is filed as cell-based. As to the method:
Also shown are controls for no treatment (“c” minus 1a) or treatment with 1a only (“c” plus 1a). Each lane represents 60 μg protein. […] Each lane represents 60 μg protein.
To measure DSB repair, cells were incubated for 1 hour with 10 μM camptothecin to induce DSBs, followed by incubation in the presence or absence of 50 μM 1a. At fixed times, histones were prepared by extraction in 0.2M H2SO4 as described previously and 50 μg extract was analyzed by 12% SDS-PAGE followed Western analysis as described previously, using rabbit polyclonal anti-γ-H2A.X [phosphor ser 139] (Novus Biologicals, Littleton, Colo.) or anti-H3 (Upstate Biotechnology, Inc, Lake Placid, N.Y.). Band intensities were quantitated digitally. To study acetylation of γ-H2A.X, we carried out co-immunoprecipitation analysis using 50 μg extract protein in immunoprecipitation buffer (10 mM sodium phosphate pH 7, 0.15 M NaCl, 0.1% SDS, 1% NP40, 1% sodium deoxycholate, aprotinin, 1 mM PMSF, complete protease inhibitors (Roche) using immobilized anti-acetyl-lysine (Millipore, Temecula, Calif.) in the immunoprecipitation step. The immunoprecipitated material was then analyzed as for Western analysis using anti γ-H2A.X.

Data set [4] relates to γ-H2A.X in DU145 prostate cancer cells. Description: γ-H2A.X immunofluorescence in DU145 cells. In kind it is cell-based. The note with it: 5 nM camptothecin alone, 8 hours. An excerpt:
The immunofluorescence images on the left and right sides of the middle scheme illustrate this visually. […] Cells were fixed and stained with a rabbit antibody to the histone variant, γ-H2A.X, a marker for DNA double stranded breaks, followed by staining with a fluorescein (FITC)-tagged goat anti rabbit secondary antibody. Nuclei were stained with Hoescht 33345.

For another data set, the system named is BT20 TNBC cells. The experiment in a line: 3-day viability assay, BT20. It is filed as cell-based. The note with it: 5 nM.
Excerpt: as §2
The effect of spd-2a on the BT20 breast cancer cell line derived form a spontaneous TNBC with wild-type BrCa1 was examined. […] Having previously established that spd-2a is a therapy sensitizer, the present inventors then examined the combined effects of spd-2a and camptothecin (the basis for the chemotherapeutic drug, Irinotecan).

In data set [5] the test system is GT41F human skin fibroblast cells. The experiment in a line: [3H]-thymidine incorporation in normal fibroblasts. It is filed as cell-based. Particulars: 50 μM 1a alone or 5 nM camptothecin alone. The text has this:
Cells were either labeled immediately before treatment (starting DNA synthesis rate), or subjected to the indicated treatments and then pulsed on successive days until day 4. DNA synthesis is represented as the percent of starting DNA synthesis rate.
The present inventors used a 96-well viability assays as described in Saadatmandi et al (Cancer Gene Therapy (2002) 9:930-9) to examine the effect of the spermidine-CoA inhibitor disclosed previously on DNA synthesis in normal GT41F human skin fibroblast cells, as well as its combined effect with camptothecin. GT41F cells were plated in 96-well plates at 3000 cells per well. […] Following the 6-hour labeling, cells were harvested and incorporation of [^3H]-thymidine was determined by scintillation counting.
For orientation: Incorporation of labelled thymidine or its analogues reports DNA synthesis.

Data set [6] deals with H358 lung cancer cells. The experiment in a line: [3H]-thymidine incorporation (DNA synthesis) assay in H358 cells. In kind it is cell-based. Particulars: 5 nM alone (18 or 24 hours). As to the method: (A) Structures of 1a, and the acetylated side chain of a lysine residue within the polypeptide chain of a protein targeted by the acetylating enzyme (R1 and R2 are the main chain elements on both sides of the lysyl residue). (B) [^3H]-thymidine incorporation into DNA of H358 cells pulsed for 6 hrs at three different time points after the addition of increasing concentrations of 1a, i.e., at 6-12 hrs (12 hr curve), at 18-24 hours (24 hr curve), or at 42-48 hrs (48 hr curve). Incorporation is represented as a percentage relative to control (untreated) cells. (C) Cell cycle analysis of propidium iodide-stained cells harvested at various times after addition of 50 μM 1a. % of cells in G1, S, and G2 represents the average of two independent profiles. (D) Western analysis of histone H3 lysine 9 acetylation, histone H3 lysine 56 acetylation, histone H3 lysine 9 methylation, and total histone H3, before “c” or at the indicated times after addition of 50 μM 1a. Each lane represents 60 μg cellular protein.
as §1
Cells were either labeled immediately before treatment (starting DNA synthesis rate), or subjected to the indicated treatments and then pulsed on successive days until day 4. DNA synthesis is represented as the percent of starting DNA synthesis rate. Viability was determined for each treatment condition 24 hours post-start of treatment by the trypan blue exclusion assay, with percentages of viable cells indicated to the right of the graph.
H358 cells (2,000/well) in 96-well plates were treated with 1, 10 or 50 μM of spd-1a, spd-2a, spd-3a, spm3, or spm2 for 12 hours. Triplicate wells of cells were pulsed 6 hours with 0.5 μCi [^3H]-thymidine (NEN, Boston Mass.) post-start of drug treatment, and harvested onto filter paper using a Brandel Harvester and subjected to scintillation counting. Untreated cells were pulsed from 0-6 hrs to establish the initial rate of incorporation.
Cells were plated in 96-well plates (2000 cells per well to insure conditions for exponential growth for untreated cells over the time course of the experiment) and exposed to the following treatments: 1a (50 μM); camptothecin (Sigma, St Louis, Mo. 5 nM, 18 hours); cisplatin (Platinol, obtained through local pharmacies, 2 μM, 1 hour 15 minutes), 5-fluorouracil (5FU, Adrucil™, obtained through local pharmacies, 2 μM, 1 hour 15 minutes), Taxotere (provided by the late Dr. Pierre Potier, 5 nM, 18 hours). UVC treatment (40 J/m^2) using a Stratalinker™, Stratagene, La Jolla, Calif.) was carried using medium lacking phenol red. At 0-6 hr, 18-24 hr (day 1), 42-48 hr […], 66-72 hr (day 3), and 90-96 hr (day 4) post-start of treatment, triplicate wells were incubated with 0.5 μCi [^3H]-thymidine (NEN, Boston Mass.), harvested onto filter paper, and subjected to scintillation counting. Trypan blue exclusion assays for cell membrane integrity were carried out as known in the art.
The present inventors used 96-well viability assays as described in Saadatmandi et al (Cancer Gene Therapy (2002) 9:[…]) to examine the effect of 1a on DNA synthesis in H358 cells, as well as the combined effects of 1a and chemotherapeutic agents. H358 cells were plated in 96-well plates at 3000 cells per well. […]

In data set [7] the test system is DU145 prostate cancer cells. Description: Viability assay, DU145. The note with it: 5 nM camptothecin or 10 μM 2a. It is filed as cell-based. The protocol: as §3

For `CC(C)(COP(=O)(O)OP(=O)(O)OC[C@H]1O[C@@H](n2cnc3c(N)ncnc32)[C@H](O)[C@@H]1OP(=O)(O)O)[C@@H](O)C(=O)NCCC(=O)NCCSCC(=O)NCCCCNCCCN` [1b, spermidine [N8]-CoA], in the data set on H358 lung cancer cells [1], the “suppression of 3 day cell viability” value was 60-70%. In [2], the “inhibitory activity against endogenous HAT activity, isomers compared” value is given as “comparable inhibitory activity”.
As for `O=c1[nH]cc(F)c(=O)[nH]1` [5FU, 5-Fluorouracil], the “effect as single agent on viability” value (in [3]; in the data set with MCF7 breast cancer cells) was “minimal effects” each time. For the same compound, in the data set on γ-H2A.X in H358 cells, the “γ-H2A.X level, single agent” value is “weakly detectable”.
Regarding `CC[C@@]1(O)C(=O)OCc2c1cc1n(c2=O)Cc2cc3ccccc3nc2-1` [camptothecin], in data set [4], the “DNA damage (γ-H2A.X staining)” value is “minimal damage”. In addition, in the data set with BT20 TNBC cells, the “effect of camptothecin by itself” value is “no effect”. Besides, the “effect on incorporation of [3H]-thymidine, single agent” value in data set [5] was “virtually no effect”. For the same compound, in the data set with H358 lung cancer cells [6], the “effect of camptothecin alone on [3H]-thymidine incorporation” value was “no detectable effect”. For the same compound, the “2-day cell viability relative to untreated cells” value with MCF7 breast cancer cells (5 nM camptothecin alone, 18 hour) is on record as “no effect”. In addition, in the data set with γ-H2A.X in H358 cells, the “γ-H2A.X level, single agent” value is recorded as “weakly detectable”. Besides, the “effect of the dose on cell viability, single agent” value in [7] was “minimal effects on cell viability”.
As for `N.N.[Cl][Pt][Cl]` [cisplatin, cis-diamminedichloro-platinium], the “γ-H2A.X level, single agent” value with γ-H2A.X in H358 cells is “weakly detectable”.
For the compound `COc1cccc2c1C(=O)c1c(O)c3c(c(O)c1C2=O)C[C@@](O)(C(=O)CO)C[C@@H]3O[C@H]1C[C@H](N)[C@H](O)[C@H](C)O1` [doxorubicin], the “effect as single agent on viability” value (in data set [3]; with MCF7 breast cancer cells) was “minimal effects” throughout.
